Laboratory results taken from patent US20100267561A1, “HERBICIDAL PYRIDAZINONE DERIVATIVES” (priority 2007, published 2010).
Like-named read-outs stand apart in the source and are kept apart here.

What was measured:
Format in all cases: in vivo
[1] = test system: green foxtail (Setaria viridis); assay: Test B pre-/postemergence plant response; settings: for Foxtail, Green plant response rating: 8 g ai/ha; for pest or weed control at 16 g/ha / pest or weed control at 31 g/ha / pest or weed control at 62 g/ha: Setaria viridis, read-out: Plant response rating, Foxtail, Green; for pest or weed control at 16 g/ha: 16 g ai/ha; for pest or weed control at 31 g/ha: 31 g ai/ha; for pest or weed control at 62 g/ha: 62 g ai/ha
Procedure, shortened: (§1)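 Visual scoring from 0 (no effect) to 100 (complete control) against untreated controls was done 13 to 15 days after greenhouse treatment. Chemicals were formulated in a surfactant-containing non-phytotoxic solvent and applied to soil preemergence or to 1- to 4-leaf (2-18 cm) plants postemergence.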

[2] = test system: eastern black (E.B.) nightshade (Solanum ptycanthum); assay: Test B pre-/postemergence plant response; settings: Preemergence
Procedure, shortened: as §1

[3] = test system: barnyardgrass (Echinochloa crus-galli); assay: Test B flooded paddy test plant response; settings: Echinochloa crus-galli, read-out: Plant response rating, Barnyardgrass
Procedure, shortened: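 Paddy-water application to 2-leaf plants in pots held under 3 cm of flooding; response is a 0–100 visual control rating against controls after 13 to 15 days, and a dash marks a missing result.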

[4] = test system: giant foxtail (Setaria faberi); assay: Test A pre-/postemergence plant response; settings: Setaria faberi, 240 h, read-out: Plant response rating, Foxtail, Giant; for pest or weed control at 125 g/ha: 125 g ai/ha; for pest or weed control at 500 g/ha: 500 g ai/ha
Procedure, shortened: (§2)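 Greenhouse pot test: loam–sand soil; pre- and postemergence sprays applied same day; post plants 2–10 cm, 1–2 leaves. Readout ~10 d, visual % injury vs untreated (0 = none, 100 = complete control).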

[5] = test system: morningglory (Ipomoea coccinea); assay: Test A pre-/postemergence plant response
Procedure, shortened: as §2

[6] = test system: large crabgrass (Digitaria sanguinalis); assay: Test A pre-/postemergence plant response; settings: Digitaria sanguinalis, 240 h, read-out: Plant response rating, Crabgrass, Large; for pest or weed control at 125 g/ha: 125 g ai/ha; for pest or weed control at 500 g/ha: 500 g ai/ha
Procedure, shortened: as §2

[7] = test system: velvetleaf (Abutilon theophrasti); assay: Test A pre-/postemergence plant response
Procedure, shortened: as §2

[8] = test system: corn (Zea mays); assay: Test A pre-/postemergence plant response; settings: Zea mays, 240 h; for Corn plant response rating (crop injury, 0 = no effect, 100 = complete kill) at 125 g/ha: 125 g ai/ha; for Corn plant response rating (crop injury, 0 = no effect, 100 = complete kill) at 500 g/ha: 500 g ai/ha
Procedure, shortened: as §2

[9] = test system: wheat (Triticum aestivum); assay: Test A pre-/postemergence plant response; settings: Triticum aestivum, 240 h, read-out: Plant response rating, Wheat; for plant injury at 125 g/ha: 125 g ai/ha; for plant injury at 500 g/ha: 500 g ai/ha
Procedure, shortened: as §2

[10] = test system: barnyardgrass (Echinochloa crus-galli); assay: Test A pre-/postemergence plant response; settings: Echinochloa crus-galli, 240 h, read-out: Plant response rating, Barnyardgrass; for pest or weed control at 125 g/ha: 125 g ai/ha; for pest or weed control at 500 g/ha: 500 g ai/ha
Procedure, shortened: as §2

[11] = test system: pigweed (Amaranthus retroflexus); assay: Test A pre-/postemergence plant response; settings: Amaranthus retroflexus, 240 h, read-out: Plant response rating, Pigweed; for pest or weed control at 125 g/ha: 125 g ai/ha; for pest or weed control at 500 g/ha: 500 g ai/ha
Procedure, shortened: as §2

[12] = post-emergence, Postemergence, scale 0 to 100, 0 no effect, 100 complete control
[13] = post-emergence, Postemergence, 0 to 100 scale, 0 no effect, 100 complete control
[14] = pre-emergence, Preemergence, 0 to 100 scale (0 no effect, 100 complete control)
[15] = Postemergence, 125 g ai/ha, 0 to 100 scale, 0 no effect, 100 complete control
[16] = Postemergence, 500 g ai/ha, 0 to 100 scale, 0 no effect, 100 complete control
[17] = Preemergence, 125 g ai/ha, 0 to 100 scale (0 no effect, 100 complete control)
[18] = Preemergence, 500 g ai/ha, 0 to 100 scale (0 no effect, 100 complete control)

Question: `CCc1c(C)c(-c2ccc(Cl)cc2)nn1-c1c(O)cnn(C)c1=O` [Compound 26, 4-[3-(4-chlorophenyl)-5-ethyl-4-methyl-1H-pyrazol-1-yl]-5-hydroxy-2-methyl-3(2H)-pyridazinone] was tested. Which “Foxtail, Green plant response rating” value ([1]; postemergence, 0-100 scale) did it give?
Answer: 60

Question: And the “Foxtail, Green plant response rating” value ([1]; Preemergence, scale 0 to 100)?
Answer: 98

Question: And the pest or weed control at 16 g/ha ([1]; post-emergence, Postemergence, scale 0 to 100)?
Answer: 80%

Question: What about the pest or weed control at 31 g/ha [1, 12] of the same molecule?
Answer: 80%

Question: What about the pest or weed control at 62 g/ha [1, 12] of the same molecule?
Answer: 98%

Question: What about the pest or weed control at 16 g/ha ([1]; pre-emergence, Preemergence, scale 0 to 100 (0 no effect, 100 complete control)) of the same molecule?
Answer: 100%

Question: And the pest or weed control at 31 g/ha ([1]; pre-emergence, Preemergence, 0 to 100 scale, 0 no effect, 100 complete control)?
Answer: 100%

Question: And the pest or weed control at 62 g/ha ([1]; pre-emergence, Preemergence, scale 0 to 100)?
Answer: 100%

Question: What about the “Nightshade, E. B. plant response rating” value ([2]; 8 g ai/ha, scale 0 to 100) of the same molecule?
Answer: 0

Question: What about the pest or weed control at 16 g/ha ([2]; Solanum, pre-emergence, 16 g ai/ha, scale 0 to 100 (0 no effect, 100 complete control), read-out: Plant response rating, Nightshade, E. B.) of the same molecule?
Answer: 0%

Question: And the pest or weed control at 31 g/ha ([2]; Solanum, pre-emergence, 31 g ai/ha, 0 to 100 scale, 0 no effect, 100 complete control, read-out: Plant response rating, Nightshade, E. B.)?
Answer: 0%

Question: And the pest or weed control at 62 g/ha ([2]; Solanum, pre-emergence, 62 g ai/ha, scale 0 to 100, read-out: Plant response rating, Nightshade, E. B.)?
Answer: 0%

Question: And the pest or weed control at 62 g/ha ([3]; Flood (flooded paddy test), 62 g ai/ha, scale 0 to 100, 0 no effect, 100 complete control)?
Answer: 0%

Question: What about the pest or weed control at 125 g/ha ([3]; Flood (flooded paddy test), 125 g ai/ha, scale 0 to 100, 0 no effect, 100 complete control) of the same molecule?
Answer: 0%

Question: What about the pest or weed control at 250 g/ha ([3]; Flood (flooded paddy test), 250 g ai/ha, scale 0 to 100, 0 no effect, 100 complete control) of the same molecule?
Answer: 20%

Question: What about the pest or weed control at 31 g/ha ([3]; Flood, 31 g ai/ha, scale 0 to 100) of the same molecule?
Answer: 0%

Question: And the pest or weed control at 125 g/ha [4, 13]?
Answer: 90%

Question: What about the pest or weed control at 500 g/ha [4, 13] of the same molecule?
Answer: 100%

Question: What about the pest or weed control at 125 g/ha [4, 14] of the same molecule?
Answer: 100%

Question: What about the pest or weed control at 500 g/ha [4, 14] of the same molecule?
Answer: 100%

Question: What about the “Plant response rating, Morningglory” value [5, 15] of the same molecule?
Answer: 0

Question: And the “Plant response rating, Morningglory” value [5, 16]?
Answer: 20

Question: What about the “Plant response rating, Morningglory” value [5, 17] of the same molecule?
Answer: 0

Question: And the “Plant response rating, Morningglory” value [5, 18]?
Answer: 0

Question: And the pest or weed control at 125 g/ha [6, 13]?
Answer: 80%

Question: And the pest or weed control at 500 g/ha [6, 13]?
Answer: 100%

Question: What about the pest or weed control at 125 g/ha [6, 14] of the same molecule?
Answer: 90%

Question: What about the pest or weed control at 500 g/ha [6, 14] of the same molecule?
Answer: 100%

Question: And the “Plant response rating, Velvetleaf” value [7, 15]?
Answer: 0

Question: What about the “Plant response rating, Velvetleaf” value [7, 16] of the same molecule?
Answer: 20

Question: What about the “Plant response rating, Velvetleaf” value [7, 17] of the same molecule?
Answer: 0

Question: What about the “Plant response rating, Velvetleaf” value [7, 18] of the same molecule?
Answer: 0

Question: And the Corn plant response rating (crop injury, 0 = no effect, 100 = complete kill) at 125 g/ha [8, 13]?
Answer: 60%

Question: And the Corn plant response rating (crop injury, 0 = no effect, 100 = complete kill) at 500 g/ha [8, 13]?
Answer: 100%

Question: And the Corn plant response rating (crop injury, 0 = no effect, 100 = complete kill) at 125 g/ha [8, 14]?
Answer: 50%

Question: What about the Corn plant response rating (crop injury, 0 = no effect, 100 = complete kill) at 500 g/ha [8, 14] of the same molecule?
Answer: 90%

Question: What about the plant injury at 125 g/ha [9, 13] of the same molecule?
Answer: 0%

Question: What about the plant injury at 500 g/ha [9, 13] of the same molecule?
Answer: 60%

Question: And the plant injury at 125 g/ha [9, 14]?
Answer: 20%

Question: And the plant injury at 500 g/ha [9, 14]?
Answer: 70%

Question: What about the pest or weed control at 125 g/ha [10, 13] of the same molecule?
Answer: 100%

Question: And the pest or weed control at 500 g/ha [10, 13]?
Answer: 100%

Question: What about the pest or weed control at 125 g/ha [10, 14] of the same molecule?
Answer: 100%

Question: And the pest or weed control at 500 g/ha [10, 14]?
Answer: 100%

Question: And the pest or weed control at 125 g/ha [11, 13]?
Answer: 0%

Question: And the pest or weed control at 500 g/ha [11, 13]?
Answer: 0%

Question: And the pest or weed control at 125 g/ha [11, 14]?
Answer: 0%

Question: What about the pest or weed control at 500 g/ha [11, 14] of the same molecule?
Answer: 0%
